Among the data in a melting point compilation (Tetko et al.; mined from patent text by program, amines drawn as free bases though some values may be those of a salt) are melting point values, retold here.

Each structure is given as a SMILES string.

Usually melting point stands for the temperature, or range, at which the solid turns liquid. As for `CCCCCCOC1=c2ccc3c(c2=C(c2ccc4c(c2)OCO4)C(C)(C(=O)OC)C1(C)C(=O)OC)OCO3` (configuration not stated), the melting point lay in the range of 110 to 111 °C.

`O=C(Nc1cc2[nH]c(=O)c(=O)[nH]c2cc1[N+](=O)[O-])C(F)(F)F` displayed a melting point of more than 320 °C. The figure for `Cc1cccc(C=NNC(=O)c2ccc(O)cc2)c1` is 242 °C; for `CCCOc1nc2cc(Cn3ccnc3)ccc2nc1C` it is 85.5 °C; for `CC(C)N(Cc1ccccc1)C(=O)C(=O)N1CCN(c2ccccc2C(C)(C)C)CC1` it is 65 to 68 °C. The figure for `CCOC(=O)c1cnc2c(c1)N(Cc1cc(F)ccc1F)CCN2` is 124 to 125 °C; for `Clc1cc2nc(Cl)n(Cc3ccccc3)c2cc1Cl` it is 175 to 176 °C. Turning to `ClC(c1ccccc1)c1cccnn1` (configuration not stated), the melting point was in the range of 110 to 112 °C.

Compound `Cc1cc(Cc2cc(C)c(N)c(C)c2)cc(C)c1N` registered a melting point of 119 to 120 °C.

In the case of `C=Cc1c(C)c2c(c(O)c1C/C=C1\CCCC1CC(=O)O)C(=O)OC2` (configuration not stated), the melting point lay in the range of 141 to 142 °C.

`Nc1cc(C(F)(F)F)ccc1N(N)C=O`: the melting point was in the range of 121 to 122 °C. The figure for `C=CC(=O)NCCNC(=O)C=C` is 150 to 155 °C. The figure for `CCC(C)(C)N1C(=O)C2(COc3cc4c(cc32)OCCO4)c2ccccc21` (configuration not stated) is 111 to 113 °C; for `CCCCNC(=O)NS(=O)(=O)Cc1c(C(=O)OC)cccc1[N+](=O)[O-]` it is 144 to 150 °C; for `O=c1[nH]c2cc(Cl)cc(Cl)c2oc1=O` it is 312 °C. `COC(=O)CCc1ccc(OCCn2c(=O)sc3cc(C(=O)c4ccccc4)ccc32)cc1` gave a melting point of 74 to 77 °C. For `O=C(O)c1cc(=O)cc(C=Cc2ccccc2)o1` the value was 227 to 228 °C; for `CC(C)S(=O)(=O)c1ccc2c(c1)nc(CC(C)(C)C)n2CCN(C)C`, 116 °C. The figure for `CSc1nc2ccnn2c(OCc2ccccc2)c1C#N` is 194 °C. Compound `CC(C)(C)OC(=O)CC1CCNC(=O)c2ccccc21` (configuration not stated) yielded a melting point of 126 to 127 °C. The figure for `CNC(=O)c1cnn(-c2ccccc2)c1Br` is 157 to 159 °C; for `CCOC(=O)C1=C(N)NC(C)=CC1c1ccccc1Cl` (configuration not stated) it is 171 °C; for `O=C1C=C(c2ccccc2O)CC1` it is 162 to 165 °C. Compound `N#Cc1ccc(Oc2c(Cl)cc(Cl)cc2Cl)cc1Cl` gave a melting point of 108 to 116 °C. For `COc1c(OC)c(OC(C)=O)c2ccc(Cl)cc2c1O` the value was 155 to 156 °C; for `CCc1nnc(NC(=O)C(c2ccccc2)c2ccccc2)o1`, 123 to 125 °C. For `COC(=O)C1=C(C)NC(=O)N(C(=O)OC)C1c1cccc(N)c1` (configuration not stated) the value was 190 to 193 °C; for `COc1ccc(C(O)c2cccc3c2ccn3S(=O)(=O)c2ccc(C)cc2)cc1` (configuration not stated), 90 °C; for `CN(C)C(=O)C1Oc2ccc([N+](=O)[O-])cc2O1` (configuration not stated), 109 °C.

`CCCCCCc1cnc(-c2ccc(C#N)cc2)nc1` registered a melting point of 53.5 to 54.5 °C.

Compound `Cc1cccc(NC(=O)CC23CC4CC(CC(C4)C2)C3)c1C` yielded a melting point of 170 °C.

Turning to `COc1c(C)cc(-c2cc(-c3ccc(S(C)(=O)=O)cc3)c(N3CCOCC3)s2)nc1C`, the melting point amounted to 152 °C. For `COc1c([N+](=O)[O-])cc(Br)c2c1C(=O)CC2` the value was 138 to 139 °C. `CN1C(=S)NN2CCCC21c1ccccc1` (configuration not stated): the melting point was in the range of 148 to 151 °C. Regarding `O=C(O)c1cn(C2CN(C(c3ccccc3)c3ccccc3)C2)c2cc(F)c(F)cc2c1=O`, the melting point fell in the range of 245 to 247 °C. The figure for `O=C(CCCCCNC(=O)C/C=C/c1ccccc1)NO` is 127 to 128 °C. On to `O=C1NC(=O)C(Cc2ccc(OCCON=Cc3ccc4ccccc4n3)cc2)S1` (configuration not stated), for which the melting point is 164 to 166 °C.

As for `CCCCOC(=O)n1nc(-c2cc(Cl)c(C)c(Cl)c2)ccc1=O`, the melting point was in the range of 153 to 157 °C. For `COc1ccccc1-n1c(=O)[nH]c2c(C(N)=O)nc(-c3cccc(C(N)=O)c3)nc21` the value was 338 to 339 °C. In the case of `CCC(C(=O)N(C)C)n1ccc(-c2ccccc2Cl)n1` (configuration not stated), the melting point lay in the range of 38.5 to 40 °C. The figure for `C=CCNC(=O)[C@H]1NCSC1(C)C` is 45 to 47 °C; for `Cc1cc(C)nc(NC(=O)c2ccncc2)c1` it is 142 °C. For `CC(C)n1nc(-c2c(-c3ccccc3)nn3ccc(N4CCNCC4)cc23)ccc1=O` the value was 203 to 204 °C; for `CC(C)(CNc1ccnc2cc(Cl)ccc12)NCc1ccc(Cl)c(C(F)(F)F)c1`, 158 to 160 °C; for `NC(=O)C(Nc1ccc2ccccc2c1)c1c(Cl)cccc1Cl` (configuration not stated), 158 °C. With `Brc1ccc2c3c(cccc13)C(NCCCCCCCCCCCCn1ccnc1)=N2`, the melting point fell in the range of 111 to 116 °C. The figure for `COC(=O)[C@H](Cc1c[nH]c2ccccc12)NC(=O)CCC(=O)[C@H](Cc1ccccc1)NC(=O)c1ccccc1` is 88 to 90 °C; for `O=C(NC1CCCCC1)NS(=O)(=O)c1cnccc1NC1CCCCC1` it is 165 to 167 °C; for `FC(F)(F)c1cccc(CCc2nnc(-c3ccnc4[nH]ccc34)o2)c1` it is 176 to 177 °C.

The compound `O=C(O)Cn1cccc(O)c1=O` came in with a melting point of 203 to 205 °C.

As to `CCCc1nn(C)c2c(=O)n(CCNc3ccc(OC(C)(C)C(=O)O)cc3)c(C)nc12`, the melting point was in the range of 88 to 90 °C. The figure for `Cc1csc2[nH]cc(C#N)c(=O)c12` is 285 °C; for `COC(=O)CCCc1cc2nc(Cl)ccc2n1S(=O)(=O)c1cccc(C(F)(F)F)c1` it is 97 °C. For the compound `COC(=O)c1snc(-c2ccc([N+](=O)[O-])cc2)c1C(=O)OC`, the melting point was in the range of 142 to 143 °C.

Take `Cn1ccc2cc(-c3cc4nccnc4[nH]3)ccc21`: the melting point lay within 260 to 265 °C. For `CCOC(=O)C1C=Nc2c(ccc3ncccc23)N1O` (configuration not stated) the value was 223 to 225 °C; for `CCCCCCCCCCCC1=NCCN1CCCCO`, 58 to 60 °C.

`CCC(=O)N1C2CCC1CN(Cc1cc3ccccc3o1)C2` displayed a melting point of 88 to 90 °C. The figure for `CCOC(=O)c1sc(Oc2ccc(Cl)cc2Cl)nc1-c1cccc(C(F)(F)F)c1` is 72 to 73 °C. The figure for `CC1=C(CCCl)C(=O)C2Sc3ccccc3N2C1` (configuration not stated) is 114 °C. The figure for `CCNC(=O)C1=CSC(Cl)N1[Si](C)(C)C` (configuration not stated) is 101 to 103 °C.

`CCC(C)Nc1c(-c2ccc(OC)cc2Cl)c(Cl)nc2ncnn12` (configuration not stated) had a melting point of 116 °C.

`CC(C)(NCCCn1ccnc1)c1ccc(-c2ccc(OCc3ccccc3)cc2)cc1` came in with a melting point of 93 to 95 °C. The figure for `Cc1cnc(NC(=O)[C@H]2[C@H](c3ccccc3)C2(C)C)s1` (relative stereo) is 132 to 135 °C; for `CCCc1c2c(cc3c1OC(O)(C(=O)OCC)CC3=O)CCCC2` (configuration not stated) it is 126 to 128 °C. Compound `CC1(C)CCC(C)(C)N1CC(O)COc1cc2ccccc2c(=O)c2ccsc12` (configuration not stated) displayed a melting point of 104 to 107 °C. Consider `COc1ccc(Nc2ccnc3nc(C)c(O)cc23)cc1`, for which the melting point was in the range of 169 to 174 °C.
